# Measurements published in PubChem BioAssay (NCI).
#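 Dose response: 5 concentrations. Exposure: 48 h. Format: 96-well plates. Endpoint: linear interpolation; highest concentration if not reached. GI50 marks 50% less growth. TGI denotes the concentration required for complete inhibition of growth.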
# Legend:
# Experiment in all cases: NCI anticancer screen, dose series, 48 h
# 786-0 renal = tested on: 786-0 renal
# A498 renal = tested on: A498 renal
# A549 NSCLC = tested on: A549 NSCLC
# ACHN renal = tested on: ACHN renal
# BT-549 breast = tested on: BT-549 breast
# CAKI-1 renal = tested on: CAKI-1 renal
# CCRF-CEM leukemia = tested on: CCRF-CEM leukemia
# COLO 205 colon = tested on: COLO 205 colon
# DU-145 prostate = tested on: DU-145 prostate
# EKVX NSCLC = tested on: EKVX NSCLC
# HCC-2998 colon = tested on: HCC-2998 colon
# HCT-116 colon = tested on: HCT-116 colon
# HCT-15 colon = tested on: HCT-15 colon
# HL-60(TB) leukemia = tested on: HL-60(TB) leukemia
# HOP-62 NSCLC = tested on: HOP-62 NSCLC
# HOP-92 NSCLC = tested on: HOP-92 NSCLC
# HS 578T breast = tested on: HS 578T breast
# HT29 colon = tested on: HT29 colon
# IGROV1 ovarian = tested on: IGROV1 ovarian
# K-562 leukemia = tested on: K-562 leukemia
# KM12 colon = tested on: KM12 colon
# LOX IMVI melanoma = tested on: LOX IMVI melanoma
# M14 melanoma = tested on: M14 melanoma
# MALME-3M melanoma = tested on: MALME-3M melanoma
# MCF7 breast = tested on: MCF7 breast
# MDA-MB-231 breast = tested on: MDA-MB-231 breast
# MDA-MB-435 = tested on: MDA-MB-435
# MOLT-4 leukemia = tested on: MOLT-4 leukemia
# NCI-H226 lung = tested on: NCI-H226 lung
# NCI-H23 lung = tested on: NCI-H23 lung
# NCI-H460 lung = tested on: NCI-H460 lung
# NCI-H522 lung = tested on: NCI-H522 lung
# NCI/ADR-RES ovarian = tested on: NCI/ADR-RES ovarian
# OVCAR-3 ovarian = tested on: OVCAR-3 ovarian
# OVCAR-4 ovarian = tested on: OVCAR-4 ovarian
# OVCAR-5 ovarian = tested on: OVCAR-5 ovarian
# OVCAR-8 ovarian = tested on: OVCAR-8 ovarian
# PC-3 prostate = tested on: PC-3 prostate
# RPMI-8226 leukemia = tested on: RPMI-8226 leukemia
# RXF 393 renal = tested on: RXF 393 renal
# SF-268 CNS = tested on: SF-268 CNS
# SF-295 CNS = tested on: SF-295 CNS
# SF-539 CNS = tested on: SF-539 CNS
# SK-MEL-2 melanoma = tested on: SK-MEL-2 melanoma
# SK-MEL-28 melanoma = tested on: SK-MEL-28 melanoma
# SK-MEL-5 melanoma = tested on: SK-MEL-5 melanoma
# SK-OV-3 ovarian = tested on: SK-OV-3 ovarian
# SN12C renal = tested on: SN12C renal
# SNB-19 CNS = tested on: SNB-19 CNS
# SNB-75 CNS = tested on: SNB-75 CNS
# SR leukemia = tested on: SR leukemia
# SW-620 colon = tested on: SW-620 colon
# T-47D breast = tested on: T-47D breast
# TK-10 renal = tested on: TK-10 renal
# U251 CNS = tested on: U251 CNS
# UACC-257 melanoma = tested on: UACC-257 melanoma
# UACC-62 melanoma = tested on: UACC-62 melanoma
# UO-31 renal = tested on: UO-31 renal
smiles,measurement,setting,value
CCO/C=N/C1=C(C#N)C(c2ccc(OC)cc2)c2sc3c(CC)cccc3c2O1 (stereo unspecified),GI50,786-0 renal,3.06 µM
same,TGI,786-0 renal,17.5 µM
same,GI50,A498 renal,0.472 µM
same,TGI,A498 renal,7.6 µM
same,GI50,A549 NSCLC,2.59 µM
same,TGI,A549 NSCLC,34.1 µM
same,GI50,ACHN renal,3.36 µM
same,TGI,ACHN renal,17.2 µM
same,GI50,BT-549 breast,4.56 µM
same,TGI,BT-549 breast,19.4 µM
same,GI50,CAKI-1 renal,1.9 µM
same,TGI,CAKI-1 renal,19.3 µM
same,GI50,CCRF-CEM leukemia,1.23 µM
same,TGI,CCRF-CEM leukemia,20.8 µM
same,GI50,COLO 205 colon,3.52 µM
same,TGI,COLO 205 colon,12.9 µM
same,GI50,DU-145 prostate,3.55 µM
same,TGI,DU-145 prostate,14.9 µM
same,GI50,EKVX NSCLC,3.47 µM
same,TGI,EKVX NSCLC,17.3 µM
same,GI50,HCC-2998 colon,2.01 µM
same,TGI,HCC-2998 colon,5.98 µM
same,GI50,HCT-116 colon,1.03 µM
same,TGI,HCT-116 colon,11.7 µM
same,GI50,HCT-15 colon,0.92 µM
same,TGI,HCT-15 colon,10.4 µM
same,GI50,HL-60(TB) leukemia,1.92 µM
same,TGI,HL-60(TB) leukemia,14.5 µM
same,GI50,HOP-62 NSCLC,5.63 µM
same,TGI,HOP-62 NSCLC,22.4 µM
same,GI50,HOP-92 NSCLC,1.67 µM
same,TGI,HOP-92 NSCLC,16.7 µM
same,GI50,HS 578T breast,2.3 µM
same,TGI,HS 578T breast,9.55 µM
same,GI50,HT29 colon,3.22 µM
same,TGI,HT29 colon,11.6 µM
same,GI50,IGROV1 ovarian,1.53 µM
same,TGI,IGROV1 ovarian,17.5 µM
same,GI50,K-562 leukemia,0.678 µM
same,TGI,K-562 leukemia,30.8 µM
same,GI50,KM12 colon,2.63 µM
same,TGI,KM12 colon,21.7 µM
same,GI50,LOX IMVI melanoma,2.31 µM
same,TGI,LOX IMVI melanoma,14.5 µM
same,GI50,M14 melanoma,1.5 µM
same,TGI,M14 melanoma,11.8 µM
same,GI50,MALME-3M melanoma,10.9 µM
same,TGI,MALME-3M melanoma,25 µM
same,GI50,MCF7 breast,1.25 µM
same,TGI,MCF7 breast,13 µM
same,GI50,MDA-MB-231 breast,4.05 µM
same,TGI,MDA-MB-231 breast,24.1 µM
same,GI50,MDA-MB-435,0.373 µM
same,TGI,MDA-MB-435,1.51 µM
same,GI50,MOLT-4 leukemia,3.28 µM
same,TGI,MOLT-4 leukemia,26.2 µM
same,GI50,NCI-H226 lung,6.65 µM
same,TGI,NCI-H226 lung,25.4 µM
same,GI50,NCI-H23 lung,3.09 µM
same,TGI,NCI-H23 lung,16.4 µM
same,GI50,NCI-H460 lung,3.46 µM
same,TGI,NCI-H460 lung,12.8 µM
same,GI50,NCI-H522 lung,1.18 µM
same,TGI,NCI-H522 lung,6.01 µM
same,GI50,NCI/ADR-RES ovarian,0.566 µM
same,TGI,NCI/ADR-RES ovarian,13.9 µM
same,GI50,OVCAR-3 ovarian,3.59 µM
same,TGI,OVCAR-3 ovarian,18.1 µM
same,GI50,OVCAR-4 ovarian,4.26 µM
same,TGI,OVCAR-4 ovarian,16.3 µM
same,GI50,OVCAR-5 ovarian,5.19 µM
same,TGI,OVCAR-5 ovarian,18.4 µM
same,GI50,OVCAR-8 ovarian,3.24 µM
same,TGI,OVCAR-8 ovarian,18 µM
same,GI50,PC-3 prostate,1.5 µM
same,TGI,PC-3 prostate,12.6 µM
same,GI50,RPMI-8226 leukemia,2.74 µM
same,TGI,RPMI-8226 leukemia,11.8 µM
same,GI50,RXF 393 renal,1.72 µM
same,TGI,RXF 393 renal,4.83 µM
same,GI50,SF-268 CNS,7.49 µM
same,TGI,SF-268 CNS,29.2 µM
same,GI50,SF-295 CNS,0.475 µM
same,TGI,SF-295 CNS,1.96 µM
same,GI50,SF-539 CNS,1.75 µM
same,TGI,SF-539 CNS,4.5 µM
same,GI50,SK-MEL-2 melanoma,5.76 µM
same,TGI,SK-MEL-2 melanoma,22.7 µM
same,GI50,SK-MEL-28 melanoma,7.74 µM
same,TGI,SK-MEL-28 melanoma,25 µM
same,GI50,SK-MEL-5 melanoma,4.86 µM
same,TGI,SK-MEL-5 melanoma,17 µM
same,GI50,SK-OV-3 ovarian,5.3 µM
same,TGI,SK-OV-3 ovarian,20.9 µM
same,GI50,SN12C renal,3.73 µM
same,TGI,SN12C renal,18.1 µM
same,GI50,SNB-19 CNS,3.35 µM
same,TGI,SNB-19 CNS,15.5 µM
same,GI50,SNB-75 CNS,0.366 µM
same,TGI,SNB-75 CNS,4.02 µM
same,GI50,SR leukemia,0.821 µM
same,TGI,SR leukemia,25 µM
same,GI50,SW-620 colon,1.45 µM
same,TGI,SW-620 colon,16.4 µM
same,GI50,T-47D breast,3.13 µM
same,TGI,T-47D breast,15.8 µM
same,GI50,TK-10 renal,9.77 µM
same,TGI,TK-10 renal,24.2 µM
same,GI50,U251 CNS,3.77 µM
same,TGI,U251 CNS,16.3 µM
same,GI50,UACC-257 melanoma,13.1 µM
same,TGI,UACC-257 melanoma,38.2 µM
same,GI50,UACC-62 melanoma,1.04 µM
same,TGI,UACC-62 melanoma,18.4 µM
same,GI50,UO-31 renal,3.29 µM
same,TGI,UO-31 renal,16.1 µM
